Data as given in US9340577B2, “HLA binding motifs and peptides and their uses” (priority 1992, dated 2016).
No end group written: not given here.

How the values were obtained:
Experiment in all cases: biochemical
Assay type in all cases: binding
[1] = target: HLA-A3.2 (A*0301) (Homo sapiens, UniProt P04439)
[2] = target: HLA-A11 (A*1101) (Homo sapiens, UniProt P04439, A114D/D185E/E176A/F33Y/L180Q/S129P/T187R)
[3] = target: A31 (A*3101) (Homo sapiens, UniProt P04439, A270S/D185E/E176V/E277Q/F33T/G231S/G80R/H175R/I121M/I218V/I322F/K168Q/L300P/L318F/M331R/P217A/Q94H/R138Q/T323A/T345S/T97I/V358M)
[4] = target: A*3301 (Homo sapiens, UniProt P04439, A270S/D185E/E176V/E277Q/E87N/F33T/G231S/H175R/I121M/I218V/I322F/K168Q/K210R/L300P/L318F/M331R/P217A/Q86R/Q94H/R138Q/T323A/T345S/T97I/V358M/Y195H)
[5] = target: A*6801 (Homo sapiens, UniProt P04439, A269V/D185E/E176V/E277Q/E87N/F33Y/G231S/I121M/I166T/I218V/L180W/L300P/L318F/N151K/P208A/P217A/Q86R/R169H/T345S)

| Sequence | IC50 [1] | IC50 [2] | IC50 [3] | IC50 [4] | IC50 [5] |
| --- | --- | --- | --- | --- | --- |
| AILGHIVIPR [Peptide 9017.0224] | 0.031 µM | 0.048 µM | 0.002 µM | 0.102 µM | 0.042 µM |
| AILGHIVRPR [Peptide 9017.0226] | 0.049 µM | 0.16 µM | 0.0071 µM | 0.24 µM | 0.234 µM |
| AIVVWTIAY [Peptide 9017.0115] | 0.121 µM | 0.0092 µM | 3.19 µM | 5.23 µM | 7.19 µM |
| ALFTAQEAK [Peptide 88.0323] | 0.028 µM | 0.013 µM | 2.66 µM | 16.1 µM | 0.603 µM |
| ALTALIKPKK [Peptide 9017.0229] | 0.529 µM | 0.43 µM | 0.901 µM | > 20 µM | 2.1 µM |
| AQIEHWKLTR [Peptide 88.0226] | 2.07 µM | 0.063 µM | 0.293 µM | > 20 µM | 2.9 µM |
| AQVLHLLKRK [Peptide 1587.52] | 0.339 µM | 0.308 µM | 18.2 µM | > 20 µM | > 20 µM |
| ATLESITKK [Peptide 78.0300] | 0.056 µM | 0.018 µM | 3.2 µM | > 20 µM | 1.95 µM |
| ATMCRHYKR [Peptide 1587.08] | 0.09 µM | 0.028 µM | 0.01 µM | 0.042 µM | 0.06 µM |
| ATNKMFCQLAK [Peptide 1556.47] | 0.029 µM | 0.0073 µM | 0.16 µM | > 20 µM | 1.62 µM |
| ATTPIIHLK [Peptide 1589.18] | 0.0097 µM | 0.0076 µM | 0.049 µM | 11.2 µM | 0.0067 µM |
| AVMCRHYKR [Peptide 1587.53] | 0.213 µM | 0.031 µM | 0.014 µM | 0.059 µM | 0.025 µM |
| AVNKMFCQLAK [Peptide 1556.46] | 0.055 µM | 0.01 µM | 0.284 µM | > 20 µM | 1.31 µM |
| CFFTRTWSR [Peptide 88.0382] | 13.5 µM | 1.49 µM | 0.0043 µM | 0.003 µM | 0.052 µM |
| CTYSPALNR [Peptide 1556.42] | 0.027 µM | 0.0096 µM | 0.017 µM | 0.0086 µM | 0.019 µM |
| DLPSQIEHWK [Peptide 88.0212] | > 20 µM | > 20 µM | > 20 µM | > 20 µM | 0.025 µM |
| EFMSFLTALK [Peptide 1587.10] | 0.477 µM | 0.683 µM | 5.96 µM | 0.021 µM | 0.02 µM |
| EFTAFLDAFK [Peptide 88.0179] | 5.79 µM | 0.968 µM | 16.5 µM | 0.014 µM | 0.127 µM |
| EFTAFLGAFK [Peptide 88.0167] | 4.67 µM | 0.293 µM | > 20 µM | 0.035 µM | 0.197 µM |
| EQNEALELK [Peptide 1556.69] | 0.166 µM | 0.128 µM | 2.3 µM | > 20 µM | 11.8 µM |
| ESKKEVESK [Peptide 9017.0083] | > 20 µM | 8.04 µM | > 20 µM | > 20 µM | 0.158 µM |
| ETLNASPYK [Peptide 1589.39] | 0.163 µM | 0.027 µM | > 20 µM | 4.71 µM | 0.028 µM |
| ETQRQQFLK [Peptide 1589.32] | 1.01 µM | 0.028 µM | 3.92 µM | 0.08 µM | 0.03 µM |
| EVLMWKFDSR [Peptide 9017.0192] | > 20 µM | 7.63 µM | 0.436 µM | 0.062 µM | 0.0028 µM |
| FADLTVVYR [Peptide 78.0318] | 19.2 µM | 9.02 µM | 1.78 µM | 0.31 µM | 0.039 µM |
| FIHFRIGCR [Peptide 9017.0112] | 1.01 µM | 7.12 µM | 0.061 µM | 0.013 µM | 0.067 µM |
| FLSALKLFLK [Peptide 1587.38] | 0.715 µM | 0.165 µM | 0.984 µM | 2.59 µM | 1.56 µM |
| FLSQVKIPK [Peptide 1589.05] | 0.086 µM | 0.022 µM | 0.072 µM | 0.158 µM | 0.048 µM |

| Sequence | IC50 [1] | IC50 [2] | IC50 [3] | IC50 [4] | IC50 [5] |
| --- | --- | --- | --- | --- | --- |
| FTAFLVAFK [Peptide 88.0389] | 0.045 µM | 0.015 µM | 0.663 µM | 0.076 µM | 0.023 µM |
| FTDLRIVYR [Peptide 1550.08] | 2.94 µM | 10.5 µM | 0.065 µM | 0.0097 µM | 0.158 µM |
| GLGISYGRK [Peptide 1577.25] | 0.064 µM | 2.15 µM | > 20 µM | > 20 µM | > 20 µM |
| GLYYWCDGEK [Peptide 88.0229] | 0.107 µM | 0.024 µM | 5.1 µM | > 20 µM | 10 µM |
| GSLQYLALK [Peptide 9017.0096] | 0.017 µM | 0.0066 µM | 0.072 µM | 14.4 µM | 10 µM |
| GSQPKTACNK [Peptide 9017.0202] | 0.472 µM | 0.03 µM | 1.48 µM | > 20 µM | 15.8 µM |
| GTAKSVTCTR [Peptide 1556.31] | 0.96 µM | 0.098 µM | 0.214 µM | 0.168 µM | 0.208 µM |
| GTFKCSAGK [Peptide 88.0373] | 0.023 µM | 0.014 µM | 0.617 µM | 18.2 µM | 0.081 µM |
| GTMCRHYKR [Peptide 1587.34] | 0.611 µM | 0.031 µM | 0.02 µM | 0.226 µM | 0.056 µM |
| GTRQARKNRR [Peptide 9017.0200] | 1.55 µM | 2.92 µM | 0.056 µM | 8.37 µM | 1.48 µM |
| GTVFGILIKR [Peptide 9012.0243] | 2.56 µM | 0.027 µM | 0.046 µM | 3.13 µM | 0.018 µM |
| GVLILALLR [Peptide 88.0338] | 2.88 µM | 0.056 µM | 2.3 µM | 3.89 µM | 0.943 µM |
| GVSIEWRKRR [Peptide 9017.0221] | > 20 µM | 6.32 µM | 0.226 µM | 1.68 µM | 8.81 µM |
| GVVFGILIKK [Peptide 9012.0242] | 0.484 µM | 0.017 µM | > 20 µM | > 20 µM | 0.146 µM |
| HLFDYSWYK [Peptide 76.0165] | 0.0041 µM | 0.00099 µM | 0.036 µM | 0.061 µM | 0.0021 µM |
| HLFGYSYYK [Peptide 76.0191] | 0.011 µM | 0.0027 µM | 1.8 µM | 3.47 µM | 0.014 µM |
| HLFRYSWYK [Peptide 76.0171] | 0.021 µM | 0.016 µM | 0.062 µM | 0.083 µM | 0.027 µM |
| HLFTYSWYK [Peptide 76.0164] | 0.0049 µM | 0.0077 µM | 0.035 µM | 0.137 µM | 0.019 µM |
| HLFWYSWYK [Peptide 76.0168] | 0.0064 µM | 0.0053 µM | 0.028 µM | 0.039 µM | 0.0034 µM |
| HLYGYSWYK [Peptide 76.0153] | 0.012 µM | 0.011 µM | 0.048 µM | 0.061 µM | 0.016 µM |
| HSRIGILRQR [Peptide 9017.0242] | 0.637 µM | 6.91 µM | 0.0098 µM | 0.418 µM | 0.253 µM |
| ILLLLIRFK [Peptide 88.0386] | 0.12 µM | 1.88 µM | 0.048 µM | 0.402 µM | 2.5 µM |
| ILYQSNPYPK [Peptide 9017.0198] | 0.0088 µM | 0.014 µM | 0.549 µM | 11 µM | 0.037 µM |
| ISWLGLRSLK [Peptide 9012.0234] | 0.031 µM | 0.018 µM | 0.265 µM | 2.5 µM | 0.039 µM |
| ISYGRKKRR [Peptide 9017.0079] | 9.28 µM | > 20 µM | 0.036 µM | 1.12 µM | 1.36 µM |
| ISYGRKKRRQK [Peptide 73.0314] | 0.048 µM | 2.81 µM | 3.15 µM | > 20 µM | 4.43 µM |
| ITVSAELPR [Peptide 1556.18] | > 20 µM | 0.739 µM | 6.93 µM | 8.71 µM | 0.025 µM |
